From publication PMC9917099, “The Mycotoxin Patulin Inhibits the Mitochondrial Carnitine/Acylcarnitine Carrier (SLC25A20) by Interaction with Cys136 Implications for Human Health” (International Journal of Molecular Sciences, 2023)

Biological target: T1, CAC in intact rat liver mitochondria (Rattus norvegicus, UniProt P97521)
T1 construct: the native protein extracted from rat liver mitochondria; from tissue; host or cells: rat liver mitochondria (Triton X-100 extract)
T1 sequence (P97521 1-301): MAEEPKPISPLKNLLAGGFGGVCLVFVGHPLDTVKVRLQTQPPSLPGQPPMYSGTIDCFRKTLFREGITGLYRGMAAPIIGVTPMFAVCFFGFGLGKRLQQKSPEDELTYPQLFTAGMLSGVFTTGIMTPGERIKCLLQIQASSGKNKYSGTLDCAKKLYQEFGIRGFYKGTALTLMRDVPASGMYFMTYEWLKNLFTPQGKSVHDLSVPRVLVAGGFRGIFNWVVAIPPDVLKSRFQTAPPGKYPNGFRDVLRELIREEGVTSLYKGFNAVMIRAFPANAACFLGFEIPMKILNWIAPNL
Assay: Treatment of intact rat liver mitochondria, then solubilization, reconstitution in proteoliposomes and carnitine antiport assay
Assay type: biochemical
Details: GSH alone, 5 mM, 60 min, intact mitochondria
Method: Figure 1 Effect of Patulin on the native carnitine/acylcarnitine carrier (CAC). (A) Dose-response analysis of proteoliposomes reconstituted with the CAC extracted from rat liver mitochondria (0.3 mg of total proteins) and incubated with PAT at the indicated concentrations for 30 min, before measuring the transport activity by adding 0.1 mM [^3H] carnitine for 10 min as described in Materials and Methods. The percentage of residual activity compared to control, without PAT treatment, is reported. The values are the means ± SD from three independent experiments. (B) Rat liver mitochondria (5 mg/100 μL) were incubated or not (control) for 60 min, with Patulin (60 μM) or GSH (5 mM) as indicated. Upon treatment, the unreacted drug was removed by washing the mitochondria in PBS 1X and then 0.3 mg mitochondria were solubilized by 3% TX-100, 10 mM PIPES pH 7.0 and reconstituted in proteoliposomes for transport assay as indicated in (A) and Materials and Methods. Black and white bars indicate without or with the addition of 5 mM dithioerythritol (DTE) 1 min before the transport assay to aliquots of each sample.
The effect of PAT on the CAC at 60 µM concentration was also detected in intact rat liver mitochondria. Upon treatment (60 min), the mitochondria were solubilized in Triton X-100 and 0.3 mg of mitochondrial extract were reconstituted in proteoliposomes for testing the transport activity of CAC (see above). […] Aliquots of intact mitochondria incubated with PAT were treated also with reduced GSH to verify whether this physiological SH-reducing agent was able to reverse the mycotoxin-protein interactions.
The recombinant CAC proteins were reconstituted in proteoliposomes as previously described. Rat liver mitochondria after purification, using the standard procedure of cell disruption and differential centrifugation were solubilized with 3% Triton X-100 in a PIPES buffer (10 mM) at pH 7.0. Herein, the mitochondrial extract (0.3 mg) were reconstituted in the liposomes as above described for the mitochondrial CAC recombinant protein, in the absence of reducing agents. The concentration of intraliposomal carnitine was 15 mM in all samples.
For the transport assay, 550 μL of proteoliposomes were passed through a Sephadex G-75 column in order to remove the external substrate. Six hundred μL of the turbid eluate were collected, divided into samples of 100 μL each, and used for transport measurement by the inhibitor-stop method. Transport was started as homoexchange by adding 0.1 mM [^3H]-carnitine to proteoliposomes containing 15 mM carnitine and, at the indicated time interval, stopped by 1.5 mM NEM (N-ethylmaleimide). The inhibitor was added together with the labelled substrate at time zero in the control samples. After finishing the transport reaction, the external radiolabel substrate was removed by gel filtration chromatography (Sephadex G-75), and the intraliposomal radioactivity was measured by liquid scintillation. Transport was measured at 25 °C. The experimental values were corrected by subtracting the controls. Transport rates were measured in 10 min, i.e., within the initial linear range of the time course.

**Q.** Which “transport activity compared to control” value does the source give for N[C@@H](CCC(=O)N[C@@H](CS)C(=O)NCC(=O)O)C(=O)O [GSH, glutathione, reference compound] here?
**A.** moderate increase
